In ChEMBL document CHEMBL6103637, “Additional Bioactive Silvestrol Analogs from the Roots of Aglaia perviridis Collected in Vietnam” (J Nat Prod, 2025) one finds IC50 data, which are given here for seven compounds.

Holding throughout (assay type): functional, cell-based
Assay [1] deals with MDA-MB-435. As to the kind of experiment: Cytotoxicity against human MDA-MB-435 cells assessed as inhibition of cell viability incubated for 72 hrs by CellTiter-blue cell viability assay. The conditions noted are these: MDA-MB-435, 72 h. A general note: Alamar Blue is a resazurin reagent that responds to reducing activity.
The test system of assay [2] is HT-29. The assay is described as follows: Cytotoxicity against human HT-29 cells assessed as inhibition of cell viability incubated for 72 hrs by CellTiter-blue cell viability assay. The conditions noted are these: HT-29, 72 h.
The subject of assay [3] is OVCAR-3. The assay is described as follows: Cytotoxicity against human OVCAR-3 cells assessed as inhibition of cell viability incubated for 72 hrs by CellTiter-blue cell viability assay. The conditions noted are these: OVCAR-3, 72 h.
Assay [4] relates to MDA-MB-231. As to the kind of experiment: Cytotoxicity against human MDA-MB-231 cells assessed as inhibition of cell viability incubated for 72 hrs by CellTiter-blue cell viability assay. The conditions noted are these: MDA-MB-231, 72 h.

By IC50 is commonly meant the point on the concentration scale where inhibition reaches its midpoint. On to `COC(=O)[C@H]1[C@@H](O)[C@@]2(O)c3c(OC)cc(O[C@@H]4O[C@@H]([C@H](O)CO)CO[C@H]4OC)cc3O[C@@]2(c2ccc(OC)cc2)[C@@H]1c1ccccc1` [SILVESTROL], for which the IC50 in assay [1] is 2 nM; in assay [2], 30 nM; in assay [3], 2 nM; in assay [4] it was 2 nM.
`COC(=O)[C@H]1[C@@H](O)[C@@]2(O)c3c(OC)cc(O[C@@H]4O[C@@H]([C@H]5COC(C)(C)O5)CO[C@H]4OC)cc3O[C@@]2(c2ccc(OC)cc2)[C@@H]1c1ccccc1`: the IC50 in assay [1] stood at 31 nM; in assay [2], 20 nM; in assay [3] it was 37 nM; in assay [4], 260 nM.
Taken in the same sequence, the figures for `COC(=O)[C@H]1[C@@H](O)[C@@]2(O)c3c(OC)cc(O[C@@H]4O[C@@H]([C@@H]5COC(C)(C)O5)CO[C@H]4OC)cc3O[C@@]2(c2ccc(OC)cc2)[C@@H]1c1ccccc1` were 26 nM, 37 nM, 38 nM and 20 nM.
Taken in the same sequence, the figures for `COC(=O)[C@H]1[C@@H](O)[C@@]2(O)c3c(OC)cc(O[C@@H]4O[C@@H]([C@@H](O)CO)CO[C@@H]4OC)cc3O[C@@]2(c2ccc(OC)cc2)[C@@H]1c1ccccc1` were 250 nM, 450 nM, 210 nM and 210 nM.
As for `COC(=O)[C@H]1[C@@H](O)[C@@]2(O)c3c(OC)cc(O[C@@H]4O[C@@H]([C@H](O)CO)CO[C@@H]4OC)cc3O[C@@]2(c2ccc(OC)cc2)[C@@H]1c1ccccc1`, the IC50 worked out at 250 nM in assay [1], 370 nM in assay [2], 210 nM in assay [3] and 240 nM in assay [4].
Taken in the same sequence, the figures for `COC(=O)[C@H]1[C@@H](O)[C@@]2(O)c3c(OC)cc(O[C@@H]4O[C@@H]([C@@H](O)CO)CO[C@H]4OC)cc3O[C@@]2(c2ccc(OC)cc2)[C@@H]1c1ccccc1` [2'-EPISILVESTROL] were 2 nM, 3 nM, 2 nM and 2 nM.
With `CC(=O)O[C@H]1C(=O)[C@@]2(C)[C@H]([C@H](OC(=O)c3ccccc3)[C@]3(O)C[C@H](OC(=O)[C@H](O)[C@@H](NC(=O)c4ccccc4)c4ccccc4)C(C)=C1C3(C)C)[C@]1(OC(C)=O)CO[C@@H]1C[C@@H]2O` [PACLITAXEL], the IC50 in assay [1] amounted to 5 nM; in assay [3], 12 nM.
